Reference: PubChem BioAssay AID1963841 (Molecular Pharmacology Branch, DTP, NCI, 2024)

Tested on: 439559-082-T-J2-PDC spheroid viability
Test: Anticancer human tumor 439559-082-T-J2-PDC patient-derived colon adenocarcinoma cell line growth inhibition [POLQ]
Details: spheroids with HUVEC and MSC; for IC50: curve of first compound; for viability, T/C: stronger effect = lower value
Method in brief: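 Patient-derived tumour cells were co-cultured with HUVEC and mesenchymal stem cells as multicellular spheroids at 37 °C. They were treated with POLQ inhibitors (novobiocin, ART-558, RP6685) alone or combined with other agents. Top concentrations were at or near clinical Cmax (otherwise 10 microM; SN-38 at 1 microM), decreasing in half-log steps.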

[1] = second compound 0.0316 µM, first compound 0.00316 µM
[2] = second compound 0.0316 µM, first compound 0.01 µM
[3] = second compound 0.0316 µM, first compound 0.0316 µM
[4] = second compound 0.0316 µM, first compound 0.1 µM
[5] = second compound 0.0316 µM, first compound 0.316 µM
[6] = second compound 0.0316 µM, first compound 1 µM
[7] = second compound 0.1 µM, first compound 0.00316 µM
[8] = second compound 0.1 µM, first compound 0.01 µM
[9] = second compound 0.1 µM, first compound 0.0316 µM
[10] = second compound 0.1 µM, first compound 0.1 µM
[11] = second compound 0.1 µM, first compound 0.316 µM
[12] = second compound 0.1 µM, first compound 1 µM
[13] = second compound 0.316 µM, first compound 0.00316 µM
[14] = second compound 0.316 µM, first compound 0.01 µM
[15] = second compound 0.316 µM, first compound 0.0316 µM
[16] = second compound 0.316 µM, first compound 0.1 µM
[17] = second compound 0.316 µM, first compound 0.316 µM
[18] = second compound 0.316 µM, first compound 1 µM
[19] = second compound 1 µM, first compound 0.00316 µM
[20] = second compound 1 µM, first compound 0.01 µM
[21] = second compound 1 µM, first compound 0.0316 µM
[22] = second compound 1 µM, first compound 0.1 µM
[23] = second compound 1 µM, first compound 0.316 µM
[24] = second compound 1 µM, first compound 1 µM
[25] = second compound 3.16 µM, first compound 0.00316 µM
[26] = second compound 3.16 µM, first compound 0.01 µM
[27] = second compound 3.16 µM, first compound 0.0316 µM
[28] = second compound 3.16 µM, first compound 0.1 µM
[29] = second compound 3.16 µM, first compound 0.316 µM
[30] = second compound 3.16 µM, first compound 1 µM
[31] = second compound 10 µM, first compound 0.00316 µM
[32] = second compound 10 µM, first compound 0.01 µM
[33] = second compound 10 µM, first compound 0.0316 µM
[34] = second compound 10 µM, first compound 0.1 µM
[35] = second compound 10 µM, first compound 0.316 µM
[36] = second compound 10 µM, first compound 1 µM
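Also: spheroids exposed to compounds for seven days before readout.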
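For viability, T/C in this document: 100% = DMSO vehicle control viability.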

Q: `CCc1c2c(nc3ccc(O)cc13)-c1cc3c(c(=O)n1C2)COC(=O)[C@]3(O)CC` + Nc1ccc(C#CCN(C(=O)Cc2ncc(C(F)(F)F)cc2C(F)(F)F)c2ccc(F)cc2)nn1 was tested. Which IC50 (second compound 0.0316 µM) did it give?
A: The IC50 was > 1000 nM.

Q: And the IC50 (second compound 0.1 µM)?
A: The IC50 was > 1000 nM.

Q: What about the IC50 (second compound 0.316 µM) of the same molecule?
A: The IC50 was > 1000 nM.

Q: What about the IC50 (second compound 1 µM) of the same molecule?
A: Its IC50 is > 1000 nM.

Q: And the IC50 (second compound 3.16 µM)?
A: The IC50 was 875 nM.

Q: And the IC50 (second compound 10 µM)?
A: The IC50 was 840 nM.

Q: And the viability, T/C [1]?
A: Its viability, T/C is 102%.

Q: And the viability, T/C [2]?
A: Its viability, T/C is 79.3%.

Q: What about the viability, T/C [3] of the same molecule?
A: The viability, T/C was 75.1%.

Q: What about the viability, T/C [4] of the same molecule?
A: Its viability, T/C is 83.4%.

Q: What about the viability, T/C [5] of the same molecule?
A: The viability, T/C was 81.6%.

Q: What about the viability, T/C [6] of the same molecule?
A: Its viability, T/C is 52.8%.

Q: What about the viability, T/C [7] of the same molecule?
A: The viability, T/C was 91.4%.

Q: And the viability, T/C [8]?
A: The viability, T/C was 79.4%.

Q: And the viability, T/C [9]?
A: Its viability, T/C is 71%.

Q: What about the viability, T/C [10] of the same molecule?
A: Its viability, T/C is 73.1%.

Q: What about the viability, T/C [11] of the same molecule?
A: Its viability, T/C is 75.7%.

Q: What about the viability, T/C [12] of the same molecule?
A: Its viability, T/C is 55.1%.

Q: And the viability, T/C [13]?
A: Its viability, T/C is 88.5%.

Q: And the viability, T/C [14]?
A: The viability, T/C was 80.6%.

Q: And the viability, T/C [15]?
A: The viability, T/C was 63.4%.

Q: What about the viability, T/C [16] of the same molecule?
A: The viability, T/C was 74.9%.

Q: What about the viability, T/C [17] of the same molecule?
A: The viability, T/C was 90.4%.

Q: And the viability, T/C [18]?
A: Its viability, T/C is 53.1%.

Q: What about the viability, T/C [19] of the same molecule?
A: The viability, T/C was 93.3%.

Q: What about the viability, T/C [20] of the same molecule?
A: The viability, T/C was 81%.

Q: What about the viability, T/C [21] of the same molecule?
A: Its viability, T/C is 75%.

Q: What about the viability, T/C [22] of the same molecule?
A: The viability, T/C was 68.2%.

Q: What about the viability, T/C [23] of the same molecule?
A: The viability, T/C was 86%.

Q: What about the viability, T/C [24] of the same molecule?
A: The viability, T/C was 50.6%.

Q: And the viability, T/C [25]?
A: Its viability, T/C is 87.5%.

Q: What about the viability, T/C [26] of the same molecule?
A: Its viability, T/C is 81.2%.

Q: What about the viability, T/C [27] of the same molecule?
A: The viability, T/C was 69.2%.

Q: What about the viability, T/C [28] of the same molecule?
A: Its viability, T/C is 72.9%.

Q: What about the viability, T/C [29] of the same molecule?
A: Its viability, T/C is 81.5%.

Q: And the viability, T/C [30]?
A: The viability, T/C was 46.5%.

Q: What about the viability, T/C [31] of the same molecule?
A: Its viability, T/C is 92.6%.

Q: What about the viability, T/C [32] of the same molecule?
A: Its viability, T/C is 74.4%.

Q: What about the viability, T/C [33] of the same molecule?
A: Its viability, T/C is 76.8%.

Q: And the viability, T/C [34]?
A: The viability, T/C was 73.9%.

Q: And the viability, T/C [35]?
A: The viability, T/C was 80%.

Q: And the viability, T/C [36]?
A: The viability, T/C was 44.8%.

Q: What does the source list for `C=CCn1c(=O)c2cnc(Nc3ccc(N4CCN(C)CC4)cc3)nc2n1-c1cccc(C(C)(C)O)n1` + COC1C(OC(N)=O)C(O)C(Oc2ccc3c(O)c(NC(=O)c4ccc(O)c(CC=C(C)C)c4)c(=O)oc3c2C)OC1(C)C?
A: IC50 (second compound 0.0316 µM): > 1000 nM; IC50 (second compound 0.1 µM): > 1000 nM; IC50 (second compound 0.316 µM): > 1000 nM; IC50 (second compound 1 µM): > 1000 nM; IC50 (second compound 3.16 µM): > 1000 nM; IC50 (second compound 10 µM): > 1000 nM; viability, T/C [1]: 98.7%; viability, T/C [2]: 104%; viability, T/C [3]: 102%; viability, T/C [4]: 101%; viability, T/C [5]: 96.1%; viability, T/C [6]: 80.7%; viability, T/C [7]: 112%; viability, T/C [8]: 106%; viability, T/C [9]: 102%; viability, T/C [10]: 102%; viability, T/C [11]: 91%; viability, T/C [12]: 79.1%; viability, T/C [13]: 102%; viability, T/C [14]: 102%; viability, T/C [15]: 105%; viability, T/C [16]: 101%; viability, T/C [17]: 94.5%; viability, T/C [18]: 86.3%; viability, T/C [19]: 106%; viability, T/C [20]: 104%; viability, T/C [21]: 100%; viability, T/C [22]: 97.3%; viability, T/C [23]: 94.8%; viability, T/C [24]: 76.3%; viability, T/C [25]: 101%; viability, T/C [26]: 101%; viability, T/C [27]: 97.2%; viability, T/C [28]: 94.6%; viability, T/C [29]: 102%; viability, T/C [30]: 85.6%; viability, T/C [31]: 100%; viability, T/C [32]: 93.8%; viability, T/C [33]: 97.9%; viability, T/C [34]: 109%; viability, T/C [35]: 94.8%; viability, T/C [36]: 72.2%

Q: Which IC50 (second compound 0.0316 µM) does the source give for `CNCc1ccc(-c2[nH]c3cc(F)cc4c3c2CCNC4=O)cc1` + COC1C(OC(N)=O)C(O)C(Oc2ccc3c(O)c(NC(=O)c4ccc(O)c(CC=C(C)C)c4)c(=O)oc3c2C)OC1(C)C here?
A: Its IC50 is > 10000 nM.

Q: What about the IC50 (second compound 0.1 µM) of the same molecule?
A: The IC50 was > 10000 nM.

Q: What about the IC50 (second compound 0.316 µM) of the same molecule?
A: The IC50 was > 10000 nM.

Q: What about the IC50 (second compound 1 µM) of the same molecule?
A: Its IC50 is > 10000 nM.

Q: What about the IC50 (second compound 3.16 µM) of the same molecule?
A: The IC50 was > 10000 nM.

Q: And the IC50 (second compound 10 µM)?
A: Its IC50 is > 10000 nM.

Q: And the viability, T/C [3]?
A: Its viability, T/C is 103%.

Q: What about the viability, T/C [4] of the same molecule?
A: Its viability, T/C is 98.7%.

Q: And the viability, T/C [5]?
A: Its viability, T/C is 99.4%.

Q: And the viability, T/C [6]?
A: Its viability, T/C is 101%.

Q: And the viability, T/C (second compound 0.0316 µM, first compound 3.16 µM)?
A: The viability, T/C was 106%.

Q: And the viability, T/C (second compound 0.0316 µM, first compound 10 µM)?
A: The viability, T/C was 102%.

Q: And the viability, T/C [9]?
A: Its viability, T/C is 101%.

Q: And the viability, T/C [10]?
A: Its viability, T/C is 107%.

Q: And the viability, T/C [11]?
A: The viability, T/C was 91.7%.

Q: And the viability, T/C [12]?
A: Its viability, T/C is 99.7%.

Q: And the viability, T/C (second compound 0.1 µM, first compound 3.16 µM)?
A: The viability, T/C was 105%.

Q: What about the viability, T/C (second compound 0.1 µM, first compound 10 µM) of the same molecule?
A: The viability, T/C was 108%.

Q: What about the viability, T/C [15] of the same molecule?
A: The viability, T/C was 104%.

Q: What about the viability, T/C [16] of the same molecule?
A: The viability, T/C was 96%.

Q: And the viability, T/C [17]?
A: The viability, T/C was 98.3%.

Q: What about the viability, T/C [18] of the same molecule?
A: The viability, T/C was 108%.

Q: What about the viability, T/C (second compound 0.316 µM, first compound 3.16 µM) of the same molecule?
A: Its viability, T/C is 110%.

Q: What about the viability, T/C (second compound 0.316 µM, first compound 10 µM) of the same molecule?
A: Its viability, T/C is 105%.

Q: And the viability, T/C [21]?
A: Its viability, T/C is 108%.

Q: And the viability, T/C [22]?
A: The viability, T/C was 103%.

Q: And the viability, T/C [23]?
A: Its viability, T/C is 106%.

Q: What about the viability, T/C [24] of the same molecule?
A: The viability, T/C was 98.1%.

Q: What about the viability, T/C (second compound 1 µM, first compound 3.16 µM) of the same molecule?
A: The viability, T/C was 111%.

Q: What about the viability, T/C (second compound 1 µM, first compound 10 µM) of the same molecule?
A: Its viability, T/C is 108%.

Q: And the viability, T/C [27]?
A: Its viability, T/C is 108%.

Q: And the viability, T/C [28]?
A: Its viability, T/C is 103%.

Q: And the viability, T/C [29]?
A: The viability, T/C was 97.4%.

Q: And the viability, T/C [30]?
A: Its viability, T/C is 95.8%.

Q: What about the viability, T/C (second compound 3.16 µM, first compound 3.16 µM) of the same molecule?
A: The viability, T/C was 114%.

Q: What about the viability, T/C (second compound 3.16 µM, first compound 10 µM) of the same molecule?
A: The viability, T/C was 105%.

Q: And the viability, T/C [33]?
A: Its viability, T/C is 99.5%.

Q: What about the viability, T/C [34] of the same molecule?
A: The viability, T/C was 93.7%.

Q: What about the viability, T/C [35] of the same molecule?
A: The viability, T/C was 95.4%.

Q: And the viability, T/C [36]?
A: The viability, T/C was 104%.

Q: What about the viability, T/C (second compound 10 µM, first compound 3.16 µM) of the same molecule?
A: The viability, T/C was 115%.

Q: And the viability, T/C (second compound 10 µM, first compound 10 µM)?
A: Its viability, T/C is 98.4%.
